Reference: patent US8003609B2, “Method for ameliorating pain by modification of NMDA receptors through inhibition of Src” (The Hospital for Sick Children, priority 2004, dated 2011)

Columns and labels:
[1] = test system: AMPA receptor; assay: mEPSC whole cell recordings in cultured hippocampal neurons, AMPA receptor component; format: cell-based, rat; details: under the recording conditions used
Experimental: Fetal rat hippocampal neurons were prepared, cultured, and used for electrophysiological recordings 12-17 days after plating. Methods for whole cell recordings are described in Pelkey et al. (Neuron 34:127-138 2002).
In contrast, in control experiments administering EPQ(pY)EEIPIA (SEQ ID NO:5) increased the NMDAR component of mEPSCs by 172±28% and application of Src40-58 decreased the NMDAR component to 56±4% (FIGS. 5D-F). […] Composite traces are shown in black, the NMDAR component in dark grey, and the AMPAR component in light grey. Scale bars are 50 ms/10 pA. […] NMDA component data were calculated as Q20′/Q2′, and AMPA component data were calculated as A20′/A2′. […] An * indicates a significant difference, Student's t-test, p<0.05. Taking our results together, it is concluded that Src-dependent regulation of the activity of NMDARs depends on expression of ND2 through its anchoring of Src to the NMDAR complex.

[2] = test system: LTP in CA1 neurons; details: cited from earlier work
[3] = target: T1, ND2.2-GST (Homo sapiens, UniProt P03891); assay: dot blot of biotinylated Src peptides on ND2.2-GST; format: binding; details: biotinylated peptide
T1 construct: amino acids 189-238 (ND2.2-GST); made in house; host or cells: bacteria
T1 sequence (P03891 189-238): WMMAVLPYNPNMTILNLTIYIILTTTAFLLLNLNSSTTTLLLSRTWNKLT
Experimental: Src, Fyn, and ND2 recombinant proteins were prepared. The cDNAs encoding the SH3 and SH2 domains of mouse n-Src and Fyn were PCR subcloned, ligated in frame into pGEX4T-1 (Amersham Pharmacia Biotech, Baie d'Urfé, Québec), and sequenced. These plasmids, as well as plasmids encoding the unique domains of Src and Fyn in pGEX2T'6, were transformed into BL21 bacteria, and GST fusion proteins were purified by glutathione affinity chromatography. To create the ND2.1, ND2.2, and ND2.3 GST fusion proteins, cDNAs encoding amino acids 239-321 (ND2.1-GST; SEQ ID NO:7), amino acids 189-238 (ND2.2-GST; SEQ ID NO:11), and amino acids 1-188 (ND2.3-GST; SEQ ID NO:13) of human ND2 were PCR subcloned and ligated into pGEX4T-1 (the nucleotide sequence encoding ND2 is SEQ ID NO:8 and the amino acid sequence is SEQ ID NO:9; the nucleotide sequences encoding ND2.1; ND2.2 and ND2.3 are SEQ ID NOS:6, 10 and 12, respectively). Using PCR-based single nucleotide mutagenesis, all cDNAs encoding ND2 fusion proteins were corrected for differences between mitochondrial and nuclear codons to prevent premature translation termination and protein truncation. […]
(§1) Src40-58 and scrambled Src peptides were biotinylated by incubating with Sulfo-NHS-Biotin (Pierce Chemical Co., Rockford, Ill.) for 30 minutes at room temperature (SEQ ID NO:4, Src protein). […] Bound probe was then detected on film using an ECL kit.

[4] = target: T2, ND2.1-GST (Homo sapiens, UniProt P03891, A265T); assay: in vitro binding of biotinylated Src peptides to ND2.1-GST (blot / dot blot); details: biotinylated peptide, streptavidin-HRP detection
T2 construct: made in house; host or cells: bacteria
T2 sequence (P03891 239-318 A265T): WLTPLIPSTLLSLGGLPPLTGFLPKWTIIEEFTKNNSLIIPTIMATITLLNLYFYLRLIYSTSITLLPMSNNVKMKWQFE
Experimental: Src, Fyn, and ND2 recombinant proteins were prepared. The cDNAs encoding the SH3 and SH2 domains of mouse n-Src and Fyn were PCR subcloned, ligated in frame into pGEX4T-1 (Amersham Pharmacia Biotech, Baie d'Urfé, Québec), and sequenced. These plasmids, as well as plasmids encoding the unique domains of Src and Fyn in pGEX2T'6, were transformed into BL21 bacteria, and GST fusion proteins were purified by glutathione affinity chromatography. To create the ND2.1, ND2.2, and ND2.3 GST fusion proteins, cDNAs encoding amino acids 239-321 (ND2.1-GST; SEQ ID NO:7), amino acids 189-238 (ND2.2-GST; SEQ ID NO:11), and amino acids 1-188 (ND2.3-GST; SEQ ID NO:13) of human ND2 were PCR subcloned and ligated into pGEX4T-1 (the nucleotide sequence encoding ND2 is SEQ ID NO:8 and the amino acid sequence is SEQ ID NO:9; the nucleotide sequences encoding ND2.1; ND2.2 and ND2.3 are SEQ ID NOS:6, 10 and 12, respectively). Using PCR-based single nucleotide mutagenesis, all cDNAs encoding ND2 fusion proteins were corrected for differences between mitochondrial and nuclear codons to prevent premature translation termination and protein truncation. All constructs were then confirmed by sequencing. The plasmids were transformed into bacteria, and GST fusion proteins were purified by glutathione affinity chromatography.
as §1
To detect the binding of ND2.1-GST with Src peptides, the ND2.1-GST fusion protein was purified on glutathione SEPHAROSE. […] Bound probe was then detected on film using an ECL kit (Amersham Pharmacia Biotech, Baie d'Urfé, Québec).
Src40-58, Src40-49, Src49-58, scrambled Src40-58, TAT-Src40-49, and scrambled TAT-Src40-49 peptides were biotinylated by incubating with Sulfo-NHS-Biotin (Pierce Chemical Co., Rockford, Ill.) for 30 minutes at room temperature. […] Bound probe was then detected on film using an ECL kit.

Src40-58: peptide comprising amino acid residues 40-58 of SEQ ID NO:4 (Src) (PASADGHRGPSAAFAPAAA; listed as Homo sapiens)
AMPA receptor component of the mEPSCs [1]: neither of these reagents affected
LTP in CA1 neurons [2]: prevented
binding to ND2.2-GST [3]: Neither Src40-58 nor scrambled Src40-58 bound
binding to ND2.1-GST [4]: bind directly
